# Experiments:
# [1] = tested on: collagen Iα1 expression in proximal tubular cells (mProx24); test: Inhibitory effect on collagen Iα1 expression in proximal tubular cells (hTGF-β1 stimulated, real-time PCR); type: cell-based; details: Mus musculus
# Method: mProx24, which is a name of the proximal tubular cells derived from proximal tubule segments obtained by finely sectioning the kidney of adult C57BL6/J mice, was granted from Professor Sugaya, St. Marianna University School of Medicine, Kanagawa, Japan. mProx24 was cultured in DMEM (Dulbecco's modified Eagle's medium) supplemented with 10% fetal calf serum (FCS, Gibco), 100 U/ml penicillin, 100 μg/ml streptomycin, and 44 mM NaHCO3 at 37° C. in a 5% CO2 atmosphere. For quantitation of RNA expression, the cells were cultured in 6-well plates. When the cells grew 90% confluent, the medium was changed with a fresh 0.15% FCS (Gibco)-supplemented DMEM. Incubation in this medium for 24 hrs halted the cell growth to synchronize the growth cycle in the cells. Compounds of Examples 1 to 9 and Comparative Example were respectively dissolved in DMSO (dimethylsulfoxide) to form a concentration of 50 mM, and subjected to serial dilution to 10 mM, 1 mM, 0.1 mM, and 0.01 mM. 10 mM, 1 mM, 0.1 mM, and 0.01 mM solutions of each of the compounds of Examples 1 to 9 and Comparative Example were 1,000-fold diluted in 0.15% FCS (Gibco)-supplemented DMEM to form final concentrations of 10 μM, 1 μM, 0.1 μM, and 0.01 μM, respectively. In addition, 0 μM (DMSO 1 μL) was used. The cells were incubated for 1 hr in the dilutions and then for 6 hrs in the presence of 5 ng/ml recombinant human transforming growth factor-β1 (hTGF-β1, R&D Systems). For the control, hTGF-β1 was not used. Total RNA was extracted from mProx24 using Trizol (Invitrogen). For quantitation of mRNA expression, a reaction volume of 20 μL including cDNA transcripts, primer pairs, and SYBR Green PCR Master Mix (Applied Biosystems) was subjected to real-time PCR with the aid of StepOnePlus (Applied Biosystems) (real-time PCR condition: 95° C., 10 min→40 thermal cycles of denaturation at 95° C. for 15 sec and primer annealing at 60° C. for 1 min→95° C. for 15 sec, 60° C. for 1 min, and 95° C. for 15 sec to measure a melting curve). Quantitation was normalized to 18S rRNA expression level. A pair of primers for mouse collagen Iα1 were 5′-[…]-3′(SEQ ID NO: 13) and 5′-[…]-3′ (SEQ ID NO: 14). Forward and reverse primers for mouse r18S rRNA were 5′-CGAAAGCATTTGCCAAGAAT-3′ (SEQ ID NO: 11) and 5′-AGTCGGCATCGTTTATGGTC-3′ (SEQ ID NO: 12), respectively.
# Experiment results are given in Tables 3 to 12 and FIGS. 4 to 13. Tables 3 to 12 and FIGS. 4 to 13 show inhibitory effects of the compounds of Examples 1 to 9 and Comparative Example 1 on collagen Iα1 expression in proximal tubular cells.
# Data of Tables 3 to 12 and FIGS. 4 to 13 are measurements of experiments repeated three to five times for each concentration, and are expressed as mean±standard error (SE). Statistic comparison among the groups was analyzed by ANOVA and Fisher's least significant difference test, with significance at p<0.05. *P<0.05 vs. WT, †P<0.05 vs. DM.
# In Tables 3 to 12, mean values of expression level ratios of collagen Iα1 (Col1α) to 18S rRNA (18S), and % inhibition against collagen Iα1 expression for each group are shown, together with IC50 value (μM). In this regard, % inhibition means relative inhibition to 100% for the control and 0% for the group that was treated with hTGF-β1 but not with any of the compounds of Examples or Comparative Example.
# [2] = tested on: C57BL/6J mice; test: Glomerular hypertrophy and glomerular mesangial expansion (PAS staining of kidney); type: in vivo; details: treatment group vs diabetes group, 10 mg/kg/day oral, 12 weeks
# Method: For morphological analysis for examining glomerular hypertrophy and glomerular mesangial cell formation, a staining method was used as disclosed previously (Lee E A, Seo J Y, Jiang Z, Yu M R, Kwon M K, Ha H, Lee H B: Reactive oxygen species mediate high glucose-induced plasminogen activator inhibitor-1 up-regulation in mesangial cells and in diabetic kidney. Kidney Int. 67:1762-71, 2005). As described in Example 10, diabetes was induced in mice that were then treated with 1-(pyridin-2-yl)-3-phenyl-4-propyl-1H-pyrazol-5-ol.HCl, the compound of Example 1, and scarified 12 weeks later. After cardiac perfusion with 0.1 M PBS (phosphate-buffered saline), tissue fixation was performed overnight with 2% PLP (paraformaldehyde-lysine-periodate). […] In one renal tissue, 30 glomeruli were scanned, and measured for size and mesangial cell formation, using Image-Pro Plus 4.5 Software (MEDIA CYBERNETICS). The glomerular size was calculated according to Equation 1. […] Data of FIG. 1 are expressed as mean±standard error (SE) from 8 to 12 mice per group. Statistic comparison among the groups was analyzed by ANOVA and Fisher's least significant difference test, with significance at p<0.05. *P<0.05 vs. WT, †P<0.05 vs DM.
compound,measurement,setting,value
"CCCc1c(-c2ccccc2)nn(-c2ccccn2)c1O.Cl [Compound 18-278, 1-(pyridin-2-yl)-3-phenyl-4-propyl-1H-pyrazol-5-ol.HCl]",mrna remaining at 0.01 µM,"[1]; Col1, 0.01 μM compound, mProx24, 5 ng/ml hTGF-β1 6 hrs, relative to hTGF-β1 alone = 1, read-out: Mean expression level ratio of collagen Iα1 (Col1α) to 18S rRNA",82.1%
same,mrna remaining at 0.1 µM,"[1]; Col1, 0.1 μM compound, mProx24, 5 ng/ml hTGF-β1 6 hrs, relative to hTGF-β1 alone = 1, read-out: Mean expression level ratio of collagen Iα1 (Col1α) to 18S rRNA",70.1%
same,mrna remaining at 1 µM,"[1]; Col1, 1 μM compound, mProx24, 5 ng/ml hTGF-β1 6 hrs, relative to hTGF-β1 alone = 1, read-out: Mean expression level ratio of collagen Iα1 (Col1α) to 18S rRNA",51.6%
same,mrna remaining at 10 µM,"[1]; Col1, 10 μM compound, mProx24, 5 ng/ml hTGF-β1 6 hrs, relative to hTGF-β1 alone = 1, read-out: Mean expression level ratio of collagen Iα1 (Col1α) to 18S rRNA",36.9%
same,inhibition at 0.01 µM,"[1]; 0.01 μM compound, mProx24, 100% = control without hTGF-β1, 0% = hTGF-β1 alone, read-out: expression inhibition rate (collagen Iα1)",20%
same,inhibition at 0.1 µM,"[1]; 0.1 μM compound, mProx24, 100% = control without hTGF-β1, 0% = hTGF-β1 alone, read-out: expression inhibition rate (collagen Iα1)",33.5%
same,inhibition at 1 µM,"[1]; 1 μM compound, mProx24, 100% = control without hTGF-β1, 0% = hTGF-β1 alone, read-out: expression inhibition rate (collagen Iα1)",54.2%
same,inhibition at 10 µM,"[1]; 10 μM compound, mProx24, 100% = control without hTGF-β1, 0% = hTGF-β1 alone, read-out: expression inhibition rate (collagen Iα1)",70.7%
same,IC50,"[1]; mProx24, hTGF-β1 stimulated, read-out: IC50 (inhibition of collagen Iα1 expression)",742 nM
same,glomerular mesangial expansion (fractional mesangial area),[2],reduced to the level of the control
same,glomerular size (glomerular volume),[2],significantly smaller than that of the diabetes group

# Source: US10047067B2, “Composition for treating kidney disease comprising pyrazole derivative” (Ewha University-Industry Collaboration Foundation, priority 2012, dated 2018)
